Assay [1] concerns HUVEC (Human Umbilical Vein Endothelial Cells). Put plainly: HUVEC proliferation (crystal violet). The assay is classed as cell-based. Conditions: 40 μM, 48 h, 5,000 HUVEC per well in ECGM, 560 nm, means ± SD (n = 16), N = 3. On the procedure: Figure 1. […] 5,000 HUVEC were seeded in a 96 well plate and incubated with or without 40 μM NC1(XIX) or F4 for 48 hours. After washing, cells were fixed with glutaraldehyde and stained with crystal violet. Dye was eluted with 10% acetic acid and absorbance was read at 560 nm. The values are the means ± SD (n = 16). The experiment was repeated three times (N = 3) and the results presented in the figure correspond to the more representative one
Human Umbilical Vein Endothelial Cells (HUVEC) (Ref C-12253) were purchased from Promocell. They were grown in Endothelial Cell Growth Medium (ECGM) (Promocell, Ref C-22110: Basal medium supplemented with 0.02 mL/mL Fetal Calf Serum, 0.004 mL/mL Endothelial Cell Growth Supplement, 0.1 ng/mL Epidermal Growth Factor (recombinant human), 1 ng/mL Basic Fibroblast Growth Factor (recombinant human), 90 μg/mL Heparin, 1 μg/mL Hydrocortisone) at +37°C in a humid atmosphere containing 5% CO2. PromoCell Detach Kit was used for the detachment of HUVEC according to the manufacturer’s protocols (Promocell, ref C-41200).
For cell proliferation measurement, 5,000 HUVEC were seeded in 96-well plates and cultivated in ECGM with or without 40 μM NC1(XIX) or F4 at +37°C in a humid atmosphere containing 5% CO2. […] Dye was eluted with 10% (v/v) acetic acid and absorbance was read at 560 nm.

For the next assay, the system named is mouse melanoma model. To be noted: previously demonstrated by the authors, no ref in abstract; cited from earlier work. The source says: (§1) The aim of the present work was to study the anti-angiogenic properties of F4 peptide. […] By affinity chromatography, we identified αvβ3 and α5β1 integrins as potential receptors for F4 peptide on endothelial cell surface. Using solid phase assays, ... || Type XIX collagen, that belongs to the FACIT family (Fibril-Associated Collagens with Interrupted Triple helices), is a minor collagen associated to the basement membrane zone.

The next assay concerns melanoma cell. Conditions: cited from earlier work.
Description: as §1

The test system of assay [2] is Sprague Dawley rat aortic rings. Briefly: Ex vivo rat aortic ring assay (endothelial cell outgrowth). The assay is classed as cell-based. How it is done:
Figure 3. NC1(XIX) and F4 inhibit endothelial cell ex vivo migration. Rat aortic rings were embedded in Matrigel in 24 well-plate and then incubated with or without 40 μM NC1(XIX) or F4 for 14 days. Micro-vessel outgrowth was observed under an inverted microscope after 14 days and photographed (a). Cell outgrowth from the tissue explant was measured using a home-made macro based on ImageJ analysis software. The results are presented as mean ± SD (n = 5 replicates) (b). The experiment was repeated twice (N = 2)
The ex vivo rat aortic ring assay was adapted from Baker et al.. Thoracic aorta was dissected from Sprague Dawley rat and stored in Opti-MEM (ThermoFisher, ref 31985062) supplemented with 1% penicillin/streptomycin in a Petri dish. Aorta was then cut into 0.5 mm rings that were incubated in Opti-MEM overnight at +37°C in a Petri dish. Matrigel (7 mg/mL) was loaded in 24-well plate and allowed to polymerize at +37°C for 30 min. The rings were carefully transferred from the Petri dish onto the Matrigel coated wells and were completely embedded by addition of Matrigel. The plate was incubated at +37°C for 30 min. Opti-MEM supplemented with 30 ng/mL VEGF with or without 40 μM NC1(XIX) or F4 was added. Plate was incubated at +37°C in a humid atmosphere containing 5% CO2 for 14 days. The supplemented culture medium was changed every 3 days. Rings were imaged under an inverted light microscope at 14 days. Quantitative evaluation of the angiogenic sprouting was determined by measuring the number of endothelial cell outgrowth from the primary tissue explant using a homemade macro based on ImageJ analysis software. The first step consisted in the semi-automatic selection of aortic ring shape at day 0 by manual threshold allowing the design of a top hat filter to obtain a relevant mask of this structure. The mask was then substracted from day 14 image to keep only outgrowing cells. The second step consisted in a manual threshold and the use of ‘Analyze Particules’ tool involving size criteria. The total cell number of cell outgrowing from the ring was determined.

“Also recorded” adds a separate entry of the source. Positions of bridges follow the written chain, without caps; N, C: chain ends. No end group written: not given here.

Take “CNPEDCLYPVSHAHQR (disulfide 1-6 (inferred)) [F4, collagen XIX-derived peptide, released by plasmin from type XIX collagen]”: in assay [1], the “effect on HUVEC proliferation” value was “not significantly modified; also recorded: does not affect endothelial cell proliferation”. Besides, the “cancer progression in mouse melanoma model” value with mouse melanoma model is listed as “cancer progression in a mouse melanoma model”. The melanoma cell migration result in the assay on melanoma cell (in vitro, previously demonstrated by the authors, no ref in abstract) was “able to inhibit melanoma cell migration”. Moreover, the “melanoma cell migration, compared with NC1(XIX) domain” value with melanoma cell (ref [24]) was “reproduced the whole NC1(XIX) domain effect on melanoma cell migration”. The “cell outgrowth, F4 compared with NC1(XIX)” value in assay [2] (40 μM, 14 days, Opti-MEM with 30 ng/mL VEGF) was “even stronger than NC1(XIX) effect”. Also, in assay [2] (40 μM, 14 days, Opti-MEM with 30 ng/mL VEGF, Matrigel, mean ± SD (n = 5), N = 2, p < 0.01 NC1(XIX), p < 0.001 F4), the “change of cell outgrowth from aortic ring vs control” value is reported as −78%. The “anti-angiogenic effect on aortic endothelial sprouting, F4 compared with NC1(XIX) (discussion)” value in assay [2] (ex vivo) is “even greater than the whole NC1(XIX) domain”. Moreover, the “inhibition of endothelial sprouting” value in assay [2] (rat aortic ring assay (abstract)) is “endothelial sprouting in a rat aortic ring assay”.

The values above are taken from PMC8312610, “F4, a collagen XIX-derived peptide, inhibits tumor angiogenesis through αvβ3 and α5β1 integrin interaction” (Cell Adhesion & Migration, 2021).
